Results taken from ChEMBL document CHEMBL2331244, “Selective 3-phosphoinositide-dependent kinase 1 (PDK1) inhibitors: dissecting the function and pharmacology of PDK1” (J Med Chem, 2013).
Values belong to the molecule of their own block, whether it stands above or below them.

Key:
[1] = molecular target: T1, 3-phosphoinositide-dependent protein kinase 1 (Homo sapiens) (UniProt O15530); assay: Agonist activity at PDK1 (unknown origin) using T308tide as substrate assessed as concentration required to elicit 50% response in presence of [gamma-32P]ATP
T1 sequence (whole entry): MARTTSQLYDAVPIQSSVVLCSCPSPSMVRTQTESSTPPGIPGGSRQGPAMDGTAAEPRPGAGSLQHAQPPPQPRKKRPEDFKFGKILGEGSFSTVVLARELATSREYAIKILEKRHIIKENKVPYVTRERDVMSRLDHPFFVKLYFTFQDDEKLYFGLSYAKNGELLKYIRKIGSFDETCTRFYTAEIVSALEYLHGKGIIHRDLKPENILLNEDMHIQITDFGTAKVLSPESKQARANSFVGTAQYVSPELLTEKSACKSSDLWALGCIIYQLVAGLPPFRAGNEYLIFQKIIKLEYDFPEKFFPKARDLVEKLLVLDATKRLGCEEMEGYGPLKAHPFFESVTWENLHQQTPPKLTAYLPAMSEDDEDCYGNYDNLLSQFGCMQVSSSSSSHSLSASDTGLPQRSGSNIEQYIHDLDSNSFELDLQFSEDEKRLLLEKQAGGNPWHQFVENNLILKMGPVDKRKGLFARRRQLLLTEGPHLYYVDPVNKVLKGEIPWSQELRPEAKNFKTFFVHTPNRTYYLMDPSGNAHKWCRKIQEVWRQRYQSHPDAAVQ

[2] = molecular target: T1, 3-phosphoinositide-dependent protein kinase 1 (Homo sapiens); assay: Agonist activity at human N-terminal His6-tagged PDK1 amino acid residues 51 to 359 expressed in insect sf21 cells using T308tide as substrate at 313 uM incubated for 60 mins prior to substrate addition measured after 60 mins by ATP depletion assay
[3] = molecular target: T2, 3-phosphoinositide-dependent protein kinase 1 (Homo sapiens, UniProt O15530); assay: Inhibition of recombinant PDK1 (unknown origin) using RPRAATF peptide as substrate assessed as substrate phosphorylation by scintillation counting analysis in presence of [gamma-32P]ATP
T2 sequence (O15530 whole entry): T1 sequence (whole entry)

[4] = molecular target: T2, 3-phosphoinositide-dependent protein kinase 1; assay: Inhibition of PDK1 (unknown origin)
[5] = molecular target: Serine/threonine-protein kinase mTOR (Homo sapiens, UniProt P42345); assay: Inhibition of MTOR (unknown origin)
[6] = system: LNCaP; assay: Antiproliferative activity against PTEN-deficient human LNCAP cells after 72 hrs by ATP ViaLight assay; assay type: functional, cell-based
[7] = system: T47D; assay: Antiproliferative activity against human T47D cells harboring PI3KCA mutant after 72 hrs by ATP ViaLight assay; assay type: functional, cell-based
[8] = system: UMC-11; assay: Antiproliferative activity against human UMC11 cells after 72 hrs by ATP ViaLight assay; assay type: functional, cell-based; conditions: UMC-11, 72 h
[9] = system: MDA-MB-231; assay: Antiproliferative activity against human MDA-MB-231 cells harboring KRAS mutant after 72 hrs by ATP ViaLight assay; assay type: functional, cell-based; conditions: MDA-MB-231, 72 h
[10] = system: MDA-MB-453; assay: Antiproliferative activity against human MDA-MB-453 cells harboring PI3KCA mutant after 72 hrs by ATP ViaLight assay; assay type: functional, cell-based; conditions: MDA-MB-453, 72 h
[11] = Antiproliferative activity against PTEN-deficient human […] cells after 72 hrs by ATP ViaLight assay; assay type: functional, cell-based
[12] = system: MCF7; assay: Antiproliferative activity against human MCF7 cells harboring PI3KCA mutant after 72 hrs by ATP ViaLight assay; assay type: functional, cell-based; conditions: MCF7, 72 h
[13] = Antiproliferative activity against PTEN-deficient human U87 cells after 72 hrs by ATP ViaLight assay; assay type: functional, cell-based, U-87MG ATCC; conditions: U-87 MG
[14] = Antiproliferative activity against human NCI-H1915 cells harboring KRAS mutant after 72 hrs by ATP ViaLight assay; assay type: functional, cell-based; conditions: NCI-H1915, 72 h
[15] = system: LS-513; assay: Antiproliferative activity against human LS513 cells harboring KRAS mutant after 72 hrs by ATP ViaLight assay; assay type: functional, cell-based; conditions: LS-513, 72 h
[16] = system: HCT-116; assay: Antiproliferative activity against human HCT116 cells harboring PI3KCA/KRAS double mutant after 72 hrs by ATP ViaLight assay; assay type: functional, cell-based; conditions: HCT-116, 72 h
[17] = system: NCI-H1437; assay: Antiproliferative activity against human NCI-H1437 cells after 72 hrs by ATP ViaLight assay; assay type: functional, cell-based; conditions: NCI-H1437, 72 h
[18] = system: A-427; assay: Antiproliferative activity against human A427 cells harboring KRAS mutant after 72 hrs by ATP ViaLight assay; assay type: functional, cell-based; conditions: A-427, 72 h
[19] = system: A549; assay: Antiproliferative activity against human A549 cells harboring KRAS mutant after 72 hrs by ATP ViaLight assay; assay type: functional, cell-based; conditions: A549, 72 h
[20] = system: PC-3; assay: Antiproliferative activity against PTEN-deficient human PC3 cells after 72 hrs by ATP ViaLight assay; assay type: functional, cell-based; conditions: PC-3, 72 h
[21] = system: BT-474; assay: Antiproliferative activity against human BT474 cells harboring PI3KCA mutant after 72 hrs by ATP ViaLight assay; assay type: functional, cell-based; conditions: BT-474, 72 h
[22] = system: NCI-H446; assay: Antiproliferative activity against PTEN-deficient human NCI-H446 cells after 72 hrs by ATP ViaLight assay; assay type: functional, cell-based; conditions: NCI-H446, 72 h

- Activity [1]: 34 µM
SMILES: O=C(O)CSC(CC(=O)c1ccc(Cl)cc1)c1ccccc1 (configuration not stated)

- Activity [2]: 33%
SMILES: COc1ccc(CC(C(=O)O)c2ccccc2)cc1 (configuration not stated)

SMILES: NC(N)=Nc1ccc(-n2nc(C(F)(F)F)cc2-c2ccc3c(ccc4ccccc43)c2)cc1
- IC50 [3]: 2 µM

- IC50 [4]: 0.0265 µM
- IC50 [5]: 1.3 µM
SMILES: O=P(O)(O)O[C@@H]1[C@@H](OP(=O)(O)O)[C@@H](OP(=O)(O)O)[C@@H](OCc2ccccc2)[C@H](OP(=O)(O)O)[C@H]1OP(=O)(O)O

SMILES: O=C(N[C@@H](COc1ccc2[nH]c(=O)[nH]c2c1)c1ccccc1)c1cccn(Cc2ccc(F)c(F)c2)c1=O
- EC50 [6]: > 9 µM
- EC50 [7]: > 9 µM
- EC50 [8]: > 9 µM
- EC50 [9]: > 9 µM
- EC50 [10]: > 9 µM
- EC50 [11]: > 9 µM
- EC50 [12]: > 9 µM
- EC50 [13]: > 9 µM
- EC50 [14]: > 9 µM
- EC50 [15]: > 9 µM
- EC50 [16]: > 9 µM
- EC50 [17]: > 9 µM
- EC50 [18]: > 9 µM
- EC50 [19]: > 9 µM
- EC50 [20]: > 9 µM
- EC50 [21]: > 9 µM
- EC50 [22]: > 9 µM
